Measured values as given in patent US8481711B2, “Neurite outgrowth agent” (Hidenori Kamanishi, priority 2010, dated 2013).

Key:
Format in all cases: cell-based
HT1080 cells = assay: Growth suppression of human fibrosarcoma cells (cell count); conditions: tested 0, 2.0, 4.0, 8.0 μg/mL, 7 days, t-test p<0.05 (FIG. 20)
Method: (§1) The number of human fibrosarcoma cells (HT1080 cells) was adjusted to 1.0×10^4 cells/mL. Thus prepared HT1080 cells were cultured in an Eagle's MEM medium, to which calf serum had been added to a final concentration of 10% and to which the NAD analogue of the present invention had also been added in various concentrations of 0, 2.0, 4.0, and 8.0 μg/mL. After 7 days passed, the number of cells was counted.
(§2) Analysis was carried out by a t-test. It was determined that p<0.05 indicated a significant difference.

UF-1 cells = assay: Growth suppression of retinoic acid-resistant leukemia cells (cell count); conditions: tested 0, 2.0, 4.0, 8.0 μg/mL, 28 days, t-test p<0.05 (FIG. 19)
Method: as §1, with “retinoic acid-resistant leukemia” for “human fibrosarcoma”, “(UF-1” for “(HT1080”, “The thus” for “Thus”, “UF-1” for “HT1080”, “RPMI” for “Eagle's MEM”, “28” for “7”
Analysis was carried out by a t-test. It was determined that p<0.05 indicated a significant difference. […] A differentiation induction therapy using retinoic acid has conventionally been carried out for the treatment of myeloid leukemia cells. It has been known that the leukemia cells eventually become resistant to retinoic acid, and thus the effect of retinoic acid becomes deactivated. However, from the results of the test using the NAD analogue of the present invention, it was confirmed that the NAD analogue of the present invention has an action to suppress the growth of even leukemia cells, which have acquired resistance to retinoic acid. In general, cells are not cultured for such a long period of time. The above-mentioned results were epoch-making in the sense that they were found after the culture for 28 days.

HL-60 cells [1] = assay: Growth suppression of human myeloid leukemia cells (cell count); conditions: tested 0, 2.0, 4.0, 8.0 μg/mL, 5 days, t-test p<0.05 (FIG. 17)
Method: as §1, with “myeloid leukemia” for “fibrosarcoma”, “(HL-60” for “(HT1080”, “The thus” for “Thus”, “HL-60” for “HT1080”, “5” for “7”
as §2

HT29 cells = assay: Growth suppression of human colon-adenocarcinoma cells (cell count); conditions: tested 0, 2.0, 4.0, 8.0 μg/mL, 7 days, t-test p<0.05 (FIG. 21)
Method: as §1, with “colon-adenocarcinoma” for “fibrosarcoma”, “(HT29” for “(HT1080”, “HT29” for “HT1080”
as §2

[2] = test system: fetal rat midbrain dopaminergic nerve cells; assay: Neurite outgrowth in fetal rat midbrain dopaminergic nerve cells (anti-tyrosine hydroxylase immunostaining, Neurolucida); conditions: for length of neurites elongated from the cell bodies (concentration dependence): 0.01, 0.1, 1.0 and 10 μg/mL, vs control (FIG. 6)
Method: Fetuses were removed from a Sprague-Dawley (SD) rat that was 15 days pregnant, and a ventral portion of midbrain was then cut out under a stereoscopic microscope. The obtained portion was chopped with a surgical knife, and was then treated at 37° C. in a 0.25% trypsin-containing PBS for 20 minutes, so that the cells were dispersed. Thereafter, the resulting cells were treated with PBS that contained 50 μg/mL deoxyribonuclease (DNase I) and 50 μg/mL trypsin inhibitor at 37° C. for 5 minutes, so as to obtain fetal rat midbrain dopaminergic nerve cells. The thus obtained fetal rat midbrain dopaminergic nerve cells were cultured at 37° C. in a 10% bovine serum-added Dulbecco's modified Eagle's medium (DMEM) culture solution in the presence of 5% CO2.
The above-described fetal rat midbrain dopaminergic nerve cells were cultured for 2 days, and the culture solution was then exchanged with a fresh one. The NAD analogue of the present invention was added to the cells in various concentrations of 0 (control), 0.01, 0.1, 1.0 and 10 μg/mL, and the obtained mixture was further cultured for 3 days. On the 5th day of the culture, the dopaminergic nerve cells were stained with an anti-tyrosine hydroxylase antibody (manufactured by Pel-Freez) and a Fluorescein (FITC)-labeled secondary antibody (manufactured by Jackson ImmunoResearch Laboratories, Inc.) according to an immunostaining method. Then, the length and number of neurites elongated from the cell bodies of the stained cells were then measured using Neurolucida (manufactured by Micro Bright Field). […] Moreover, the same experiment as described above was carried out using commercially available β-NAD.
The lengths of neurites elongated from the cells were measured, and a comparison was made on the measurement results. When 10 μg/mL of the NAD analogue of the present invention was added to the cells, the length of the obtained neurite became approximately 150% if the length of a neurite in the control was defined as 100%. […] It is noted that 45 control cells and 38 test cells were subjected to the measurement, and the results were shown as average values.
FIG. 8 is a graph showing a quantitative change in the effect of the NAD analogue of the present invention to allow neurites to elongate from fetal rat brain dopaminergic cells. […] Moreover, the same experiment as described above was carried out using commercially available β-NAD.

NB-1 cells = assay: Neurite outgrowth in human neuroblastoma-derived NB-1 cells (phase-contrast microscopy); conditions: 10 μg/mL; for morphological alteration of the cells (neurite outgrowth): NB-1 cells 10^3 cells/mL, observed on the 10th day (FIG. 15)
Method: Using human neuroblastoma cell-derived cells as model cells for neurite outgrowth, the action of the NAD analogue of the present invention to induce the outgrowth of neurites was examined. Human-derived neuroblastoma cells (NB-1 cells) (obtained from the Health Science Research Resources Bank) were adjusted to a concentration of 10^3 cells/mL, and the cells were then cultured at 37° C. in a 10% fetal bovine serum-added Eagle's minimal essential medium (EME) culture solution in the presence of 5% CO2.
The above-described NB-1 cells were cultured for 3 hours, and the medium was then exchanged with a fresh one of the same type as described above. Then, 10 μg/mL of the NAD analogue of the present invention was added thereto, and the culture was further continued. Thereafter, the morphological alteration of the cells was observed under a phase-contrast microscope. During the culture, the culture solution was exchanged with a fresh one every 4 or 5 days. […] However, when compared with the case of adding the NAD analogue of the present invention to the cells, the length of such a neurite was apparently short. Moreover, the same experiment as described above was carried out using commercially available β-NAD.
The number of human neuroblastoma-derived cells (NB-cells), which were to be used as model cells for studying neurite outgrowth effect, was adjusted to 10^6 cells/mL. Thus prepared NB-1 cells were cultured in an Eagle's MEM medium, to which calf serum had been added to a final concentration of 10% and to which 10 μg/mL of the NAD analogue of the present invention had also been added. After 7 days passed, the morphological alteration of the cells was observed under a phase-contrast microscope at a magnification of 200 times.

HL-60 cells [3] = assay: Apoptosis induction in human myeloid leukemia cells (nuclear staining, DNA electrophoresis)
Method: The number of human myeloid leukemia cells (HL-60 cells) was adjusted to 1.0×10^4 cells/mL. The thus prepared HL-60 cells were cultured in an RPMI medium, to which calf serum had been added to a final concentration of 10% and to which the NAD analogue of the present invention had also been added in a concentration of 10 μg/mL or 20 μg/mL. Four days later, the cells were subjected to nuclear staining, and they were then observed under a fluorescence microscope. Furthermore, DNA was extracted from the cells according to an ordinary method and was then electrophoresed.

Neuro-2a cells = assay: Neurite outgrowth in mouse neuroblastoma Neuro-2a cells (phase-contrast microscopy); conditions: 10 μg/mL, 48 hours culture, vs control without compound
Method: Using mouse-derived neuroblastoma cells that are model cells used to examine neurite outgrowth effect, the inductive action of the NAD analogue of the present invention on the outgrowth of neurites was examined. Mouse-derived neuroblastoma cells (Neuro-2a cells) (obtained from the Health Science Research Resources Bank) were adjusted to a concentration of 10^6 cells/mL, and the cells were then cultured at 37° C. in a 10% fetal bovine serum-added Eagle's minimal essential (EME) medium culture solution in the presence of 5% CO2.
The above-described Neuro-2a cells were cultured for 3 hours, and the medium was then exchanged with a fresh one of the same type as described above. Then, 10 μg/mL of the NAD analogue of the present invention was added thereto, and the culture was further continued for 48 hours. Thereafter, the morphological alteration of the cell was observed under a phase-contrast microscope. […] However, when compared with the case of adding the NAD analogue of the present invention to the cells, the length of such a neurite was apparently short. Moreover, the same experiment as described above was carried out using commercially available β-NAD.

| Compound | concentration at which growth of the cells was significantly suppressed (HT1080 cells) [µg/mL] | concentration at which growth of the UF-1 cells was significantly suppressed (UF-1 cells) [µg/mL] | concentration at which growth of the HL-60 cells was obviously suppressed (HL-60 cells [1]) [µg/mL] | concentration at which growth of the cells was significantly suppressed (HT29 cells) [µg/mL] | length of the neurite (control defined as 100%) ([2]; 10 μg/mL, average of 38 test cells vs 45 control cells (FIG. 7)) | length of neurites elongated from the cell bodies (concentration dependence) ([2]; 3 days) | concentration whose addition allows neurites to elongate ([2]; fetal rat brain dopaminergic cells (FIG. 8)) [µg/mL] | formation of varicosities on the projection ([2]; fetal rat midbrain nerve cells, 0 to 10 μg/mL, 3 days) | morphological alteration of the cells (neurite outgrowth) (NB-1 cells) | morphological alteration of the cells (neurite-like structures) (NB-1 cells; NB-1 cells 10^6 cells/mL, after 7 days (FIG. 16)) | shape of the nucleus (nuclear staining, fluorescence microscope) (HL-60 cells [3]; HL-60 cells cultured for 4 days with compound (FIG. 18B)) | DNA fragmentation (electrophoresis of extracted DNA) (HL-60 cells [3]; HL-60 cells, 10 μg/mL or 20 μg/mL, 4 days (FIG. 18C lanes 3 and 4)) | morphological alteration of the cell (neurite outgrowth) (Neuro-2a cells) | outgrowth of neurites (same experiment as FIG. 8) ([2]; fetal rat brain dopaminergic cells) |
| --- | --- | --- | --- | --- | --- | --- | --- | --- | --- | --- | --- | --- | --- | --- |
| 3-(aminocarbonyl)-1-[5-O-[[1-(6-amino-9H-purin-9-yl)-1-deoxy-β-D-ribofuranose-5-O-yl]phosphonyloxy(oxylato)phosphinyl]-β-L-ribofuranosyl]pyridinium [NAD analogue of the present invention] | ≥ 4.0 | ≥ 8.0 | ≥ 2.0 | ≥ 2 | approximately 150% | the higher the concentration of the NAD analogue of the present invention in the fetal rat midbrain nerve cells, the longer a neurite | 0.1 | forms a large number of knobby, what is called “varicosities” on the projection | neurites (nerve axon-like projections) appeared from NB-1 cells and that these neurites elongated from the cells | neurite-like structures elongated more significantly | the breakage of the nucleus in the HL-60 cell was clearly observed | fragmentation of the DNA due to apoptosis was observed in the form of a “ladder.” | neurites (nerve axon-like projections) appeared from Neuro-2a cells and that these neurites elongated from the cells |  |
| NC(=O)c1ccc[n+]([C@@H]2O[C@H](COP(=O)([O-])OP(=O)(O)OC[C@H]3O[C@@H](n4cnc5c(N)ncnc54)[C@H](O)[C@@H]3O)[C@@H](O)[C@H]2O)c1 [β-NAD, reference compound] |  |  |  |  |  | the outgrowth of neurites was not observed |  |  | no change in neurites was found |  |  |  | no change in neurites was found | the outgrowth of neurites was not observed |
